We go through six compounds from PubChem BioAssay AID1963449 (Molecular Pharmacology Branch, DTP, NCI, 2024).

The subject of this assay is 596521-263-R-J1-PDC complex spheroid growth. The experiment in a line: Anticancer human tumor 596521-263-R-J1-PDC patient-derived soft tissue sarcoma cell line growth inhibition [Asc]. The conditions noted are these: for viability, T/C: stronger effect = lower value. An outline of the steps:
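Concentration series start at each agent's clinical Cmax, or at 10 microM when none is established, and drop in half-log steps; agents are applied alone or together to complex spheroids built with HUVEC and hMSC.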

[1] abbreviates: curve of first compound, second compound 0.0316 µM.
Setting [2] is: curve of first compound, second compound 0.1 µM.
Where [3] appears, read: curve of first compound, second compound 0.316 µM.
Where [4] appears, read: curve of first compound, second compound 1 µM.
[5] abbreviates: curve of first compound, second compound 3.16 µM.
Setting [6] is: curve of first compound, second compound 10 µM.

“And” between values parts separate entries of the source, which are not always exact repeats. Identical values can stand only once.
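Further: spheroids exposed to compounds for 7 days.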

For orientation: IC50 means the concentration at which inhibition is half-maximal. As a reminder, the viability, T/C is the result in the treated group divided by that in the control group, in per cent. As to `C#Cc1c(F)ccc2cc(O)cc(-c3ncc4c(N5CC6CCC(C5)N6)nc(OCC56CCCN5CC(F)C6)nc4c3F)c12` (stereo unspecified) + Cc1c(S(C)(=O)=O)c(-c2cc(F)cc(N3CCN(c4ccc(NS(=O)(=O)c5ccc(NC(CCN6CCC(C(=O)OCCCP(=O)(O)O)CC6)CSc6ccccc6)c(S(=O)(=O)C(F)(F)F)c5)cc4)CC3)c2)c(-c2ccc(Cl)cc2)n1C(C)C, the IC50 runs as follows: under setting [1], more than 10000 nM; under setting [2], more than 10000 nM; under setting [3], more than 10000 nM; under setting [4], more than 10000 nM; under setting [5], more than 10000 nM; under setting [6], 1680 nM. Also, the viability, T/C is, setting by setting: (second compound 0.0316 µM, first compound 0.0316 µM) 84.7%; (second compound 0.0316 µM, first compound 0.1 µM) 89.1%; (second compound 0.0316 µM, first compound 0.316 µM) 91%; (second compound 0.0316 µM, first compound 1 µM) 98.1%; (second compound 0.0316 µM, first compound 3.16 µM) 111%; (second compound 0.0316 µM, first compound 10 µM) 85.7%. The viability, T/C (second compound 0.1 µM, first compound 0.0316 µM) was 85.9%; the viability, T/C (second compound 0.1 µM, first compound 0.1 µM) is 107%; the viability, T/C (second compound 0.1 µM, first compound 0.316 µM) is 107%; the viability, T/C (second compound 0.1 µM, first compound 1 µM) was 95.5%; the viability, T/C (second compound 0.1 µM, first compound 3.16 µM) is 95.6%; the viability, T/C (second compound 0.1 µM, first compound 10 µM) was 87.8%. The viability, T/C reads like this: (second compound 0.316 µM, first compound 0.0316 µM) 82.2%; (second compound 0.316 µM, first compound 0.1 µM) 81.8%; (second compound 0.316 µM, first compound 0.316 µM) 76.9%; (second compound 0.316 µM, first compound 1 µM) 83.6%; (second compound 0.316 µM, first compound 3.16 µM) 100%; (second compound 0.316 µM, first compound 10 µM) 68.4%. The viability, T/C is, setting by setting: (second compound 1 µM, first compound 0.0316 µM) 83.7%; (second compound 1 µM, first compound 0.1 µM) 84.2%; (second compound 1 µM, first compound 0.316 µM) 79.1%; (second compound 1 µM, first compound 1 µM) 83.4%; (second compound 1 µM, first compound 3.16 µM) 69.3%; (second compound 1 µM, first compound 10 µM) 60.5%. Besides, the viability, T/C is, setting by setting: (second compound 3.16 µM, first compound 0.0316 µM) 59.4%; (second compound 3.16 µM, first compound 0.1 µM) 65.3%; (second compound 3.16 µM, first compound 0.316 µM) 61%; (second compound 3.16 µM, first compound 1 µM) 57.1%; (second compound 3.16 µM, first compound 3.16 µM) 60.4%; (second compound 3.16 µM, first compound 10 µM) 42.6%. Besides, the viability, T/C is, setting by setting: (second compound 10 µM, first compound 0.0316 µM) 48.1%; (second compound 10 µM, first compound 0.1 µM) 47.8%; (second compound 10 µM, first compound 0.316 µM) 55.1%; (second compound 10 µM, first compound 1 µM) 60.7%; (second compound 10 µM, first compound 3.16 µM) 43.7%; (second compound 10 µM, first compound 10 µM) 37.2%.

For the compound `CCN1CCN(Cc2ccc(Nc3ncc(F)c(-c4cc(F)c5nc(C)n(C(C)C)c5c4)n3)nc2)CC1`, the viability, T/C (compound 0.00316 µM) was 99.1% and 89.3% and 99.2%; the viability, T/C (compound 0.01 µM) is 103% and 87.3% and 82%; the viability, T/C (compound 0.0316 µM) is 96.3% and 101% and 86.1%; the viability, T/C (compound 0.1 µM) is 97.9% and 93.3% and 105%; the viability, T/C (compound 0.316 µM) is 96.8% and 101% and 92%; the viability, T/C (compound 1 µM) is 79.4% and 77.1% and 87.2%. Further, the IC50 (curve of compound) was more than 1000 nM.

Consider `CCN1C(C(=O)NC23CCC(C(=O)O)(CC2)CC3)C(c2cccc(Cl)c2F)C2(C(=O)Nc3cc(Cl)ccc32)C12CCCCC2` (stereo unspecified) + Cc1c(S(C)(=O)=O)c(-c2cc(F)cc(N3CCN(c4ccc(NS(=O)(=O)c5ccc(NC(CCN6CCC(C(=O)OCCCP(=O)(O)O)CC6)CSc6ccccc6)c(S(=O)(=O)C(F)(F)F)c5)cc4)CC3)c2)c(-c2ccc(Cl)cc2)n1C(C)C, for which the half-maximal inhibitory concentration (IC50) is more than 3000 nM under setting [1]; more than 3000 nM under setting [2]; more than 3000 nM under setting [3]; 2380 nM under setting [4]; 459 nM under setting [5]; 133 nM under setting [6]. Also, the viability, T/C by setting is: (second compound 0.0316 µM, first compound 0.00949 µM) 94.6%; (second compound 0.0316 µM, first compound 0.03 µM) 97.5%; (second compound 0.0316 µM, first compound 0.0949 µM) 94.3%; (second compound 0.0316 µM, first compound 0.3 µM) 90.8%; (second compound 0.0316 µM, first compound 0.949 µM) 87.5%; (second compound 0.0316 µM, first compound 3 µM) 80.7%. The viability, T/C is 89.5% (second compound 0.1 µM, first compound 0.00949 µM); 94.8% (second compound 0.1 µM, first compound 0.03 µM); 95.9% (second compound 0.1 µM, first compound 0.0949 µM); 112% (second compound 0.1 µM, first compound 0.3 µM); 87.7% (second compound 0.1 µM, first compound 0.949 µM); 73.4% (second compound 0.1 µM, first compound 3 µM). Further, the viability, T/C is, setting by setting: (second compound 0.316 µM, first compound 0.00949 µM) 98.7%; (second compound 0.316 µM, first compound 0.03 µM) 92.4%; (second compound 0.316 µM, first compound 0.0949 µM) 84.7%; (second compound 0.316 µM, first compound 0.3 µM) 97.1%; (second compound 0.316 µM, first compound 0.949 µM) 83%; (second compound 0.316 µM, first compound 3 µM) 54.1%. Also, the viability, T/C was 88.6% (second compound 1 µM, first compound 0.00949 µM); 76% (second compound 1 µM, first compound 0.03 µM); 67.2% (second compound 1 µM, first compound 0.0949 µM); 83.1% (second compound 1 µM, first compound 0.3 µM); 62.7% (second compound 1 µM, first compound 0.949 µM); 46.1% (second compound 1 µM, first compound 3 µM). The viability, T/C reads like this: (second compound 3.16 µM, first compound 0.00949 µM) 64.5%; (second compound 3.16 µM, first compound 0.03 µM) 71%; (second compound 3.16 µM, first compound 0.0949 µM) 54.8%; (second compound 3.16 µM, first compound 0.3 µM) 57.1%; (second compound 3.16 µM, first compound 0.949 µM) 42.2%; (second compound 3.16 µM, first compound 3 µM) 24.2%. Further, the viability, T/C (second compound 10 µM, first compound 0.00949 µM) was 50.8%; the viability, T/C (second compound 10 µM, first compound 0.03 µM) is 53%; the viability, T/C (second compound 10 µM, first compound 0.0949 µM) is 51.7%; the viability, T/C (second compound 10 µM, first compound 0.3 µM) was 46.8%; the viability, T/C (second compound 10 µM, first compound 0.949 µM) was 33.8%; the viability, T/C (second compound 10 µM, first compound 3 µM) is 18.8%.

For `C=CC(=O)N1CCN(c2nc(=O)n(-c3c(C)ccnc3C(C)C)c3nc(-c4c(O)cccc4F)c(F)cc23)C(C)C1` (stereo unspecified), the viability, T/C was 93.6% and 91.4% (compound 0.0316 µM); 101% and 93.4% (compound 0.1 µM); 97.6% and 109% (compound 0.316 µM); 108% and 112% (compound 1 µM); 96.7% and 107% (compound 3.16 µM); 78% and 88.9% (compound 10 µM). Moreover, under “curve of compound”, the IC50 was more than 10000 nM.

Regarding `NC(=O)C(=Cn1cnc(-c2cc(C(F)(F)F)cc(C(F)(F)F)c2)n1)c1cncnc1`, the viability, T/C is 104% and 98.5% and 48.5% (compound 0.000949 µM); 91.6% and 94.9% and 49.6% (compound 0.003 µM); 87.5% and 83.8% and 46.9% (compound 0.00949 µM); 58.5% and 51.1% and 32.2% (compound 0.03 µM); 18.1% and 18.5% and 16.5% (compound 0.0949 µM); 11.2% and 10.3% and 10% (compound 0.3 µM).

`O=C(c1ccc(F)c(F)c1Nc1ccc(I)cc1F)N1CC(O)([C@@H]2CCCCN2)C1`: the viability, T/C is 107% and 99.7% and 89.7% (compound 0.00316 µM); 95.2% and 94.7% and 92% (compound 0.01 µM); 98.4% and 88.8% and 92.9% (compound 0.0316 µM); 75.9% and 77.3% and 84.2% (compound 0.1 µM); 50.1% and 56% and 54.9% (compound 0.316 µM); 34.9% and 49.8% and 34% (compound 1 µM). Also, the concentration for half-maximal inhibition (IC50) (curve of compound) was 314 nM and 867 nM and 412 nM.
